Experimental data from patent publication US8410049B2, “Methods and kits for preventing hypoglycemia” (Cebix, priority 2009, dated 2013).

Tests used:
[1] = Bioavailability and expected plasma concentration of subcutaneously administered C-peptide; type: in vivo, human; conditions: low dose 500 nmoL/24 h given 4 times daily
Protocol: The dose selection is based on data from previous studies, in which C-peptide has been replaced for 3 months (600 nmoL/24 h) and an effect on albumin excretion and sensory nerve conduction velocity has been observed (Johansson et al., 2000; Ekberg et al., 2003). In order to maintain adequate levels of C-peptide for as many hours of the day as possible, the daily dose was divided into four doses, injected subcutaneously using Disetronic Pen 25, and administered in the morning, at lunch, at dinner, and at bedtime. […] To determine if C-peptide at a higher dose has an optimal effect, a 3 times higher dose (1,500 nmoL/24 h) was also administered.
The low-dose regimen was expected to give a mean physiological plasma concentration of ˜1 nmoL/L during the 24 h period. The high dose regimen was expected to result in concentrations ˜3 times those of the low dose regimen. The actual exposure is described in section above on “C-peptide concentrations”. […] The sampling of C-peptide in plasma at visits 2 and 4 coincided with the clinical visit and the time between the most recent administration of the trial drug and sampling varied between patients. Thereby, the results of C-peptide concentrations in plasma became less suitable for pharmacokinetic evaluations.

[2] = system: type 1 diabetes patients with peripheral neuropathy; assay: Adverse events incl. severe hypoglycemic events and hypoglycemic coma; conditions: for AEs of any severity: Tooth ache: Gastrointestinal Disorders
C-peptide antibodies = assay: Antibody formation against C-peptide, ELISA; type: in vivo, human; conditions: baseline and after 3 and 6 months of C-peptide treatment
Text: C-peptide plasma samples, C-peptide antibodies, and markers for atherosclerosis were processed (centrifuged, etc.) and stored frozen until transport to a central lab. HLA typing samples were shipped to a central lab for processing and storage until analysis. All samples there were labelled uniquely, including information about screening number and sample time.
Samples for the assessment of antibody formation were collected at baseline and at visits 2 and 4. An appropriate enzyme-linked immunoabsorbant assay (ELISA) method was developed and assessments carried out.

[3] = system: type 1 diabetes patients with peripheral neuropathy; assay: Clinical laboratory evaluation: hematology, clinical chemistries, urinalysis; type: in vivo, human; conditions: following the study treatment
Text: Before starting the study, the investigator supplied the Sponsor with a list of the normal laboratory ranges and units of measurement for the laboratory variables to be determined during the study at the site. All abnormal laboratory (those out of the normal range) values required comments on the CRF, regardless of the clinical significance: • Error—Include improper sample preparation, hemolysis, delayed transit to laboratory, etc. • Not relevant—Abnormality that was not alarming. • Patient condition—Abnormality that was a consequence of the patient's disease, age, etc. • Adverse event—Clinically relevant abnormal value that cannot be explained by the above assessment flags. Adverse Event/Serious Adverse Event CRF was filled in.
Descriptive statistics were used for safety variables.

[4] = C-peptide plasma levels, time-resolved fluoroimmunoassay; type: in vivo, human; conditions: for Increase in pre-dosing morning C-peptide plasma level vs baseline: 4.5 months (visit 3)
Protocol: The sampling of C-peptide in plasma at visits 2 and 4 coincided with the clinical visit and the time between the most recent administration of the trial drug and sampling varied between patients. Thereby, the result of C-peptide concentrations in plasma was less suitable for pharmacokinetic evaluations, but the results contributed to the assessment of treatment compliance. C-peptide plasma levels were measured at baseline, and after 3 and 6 months of treatment. Analysis was performed by the Department of Clinical Chemistry Karolinska University Hospital, Solna using a time-resolved fluoroimmunoassay (AutoDelfia, Wallac Oy, Turku, Finland). […] The plasma levels of C-peptide attained in this study ranged from about 0.2 nM to a maximum of about 6 nM in the high dose group.

[5] = system: type 1 diabetes patients with peripheral neuropathy; assay: ECG and vital signs; type: in vivo, human; conditions: for BPd (diastolic blood pressure), change from baseline to 6 months treatment (visit 4), Mean ± SD / BPd (diastolic blood pressure), change from baseline to 6 months treatment (visit 4), Median / BPs (systolic blood pressure), change from baseline to 6 months treatment (visit 4), Mean ± SD / BPs (systolic blood pressure), change from baseline to 6 months treatment (visit 4), Median / Heart rate, change from baseline to 6 months treatment (visit 4), Mean ± SD / Heart rate, change from baseline to 6 months treatment (visit 4), Median / QTc-interval Bazett, change from baseline to 6 months treatment (visit 4), Mean ± SD / QTc-interval Bazett, change from baseline to 6 months treatment (visit 4), Median / QTc-interval Fredericia, change from baseline to 6 months treatment (visit 4), Mean ± SD / QTc-interval Fredericia, change from baseline to 6 months treatment (visit 4), Median: PP data set
Protocol: At the final clinical visit (at 6 months from S/B visit), a safety assessment including physical examination, ECG, vital signs, body weight, and sampling for clinical safety laboratory tests were performed. Furthermore, the metabolic control (HbA1c) was assessed, as well as C-peptide antibodies and C-peptide levels in plasma. All efficacy variables including SCV, SNAP, MCV, MDL, CMAP, QST were performed (two examinations within 2-14 days). E/I ratio and neurological status were also assessed. All used and unused clinical trial medication was returned by the patient and drug accountability was performed by study staff. The patient diary was reviewed including recording of concomitant medication, AEs, and drug accountability. FIG. 1 summarizes the study procedures and assessments conducted at each time point.

[6] = subcutaneously administered; cited from earlier work
[7] = Low-dose, ITT data set, Infections and infestations
[8] = Low-dose, PP data set, Infections and infestations
[9] = Low-dose, PP data set, Injury poisoning, procedural complications
[10] = Low-dose, PP data set, Investigations

Question: Which results are given for CC(C)C[C@H](NC(=O)[C@H](C)NC(=O)[C@H](CC(C)C)NC(=O)[C@@H]1CCCN1C(=O)[C@H](CCC(N)=O)NC(=O)[C@H](CC(C)C)NC(=O)[C@H](CO)NC(=O)CNC(=O)[C@H](C)NC(=O)CNC(=O)[C@@H]1CCCN1C(=O)CNC(=O)CNC(=O)CNC(=O)[C@H](CC(C)C)NC(=O)[C@H](CCC(=O)O)NC(=O)[C@@H](NC(=O)[C@H](CCC(N)=O)NC(=O)CNC(=O)[C@@H](NC(=O)[C@H](CCC(N)=O)NC(=O)[C@H](CC(C)C)NC(=O)[C@H](CC(=O)O)NC(=O)[C@H](CCC(=O)O)NC(=O)[C@H](C)NC(=O)[C@@H](N)CCC(=O)O)C(C)C)C(C)C)C(=O)N[C@@H](CCC(=O)O)C(=O)NCC(=O)N[C@@H](CO)C(=O)N[C@@H](CC(C)C)C(=O)N[C@@H](CCC(N)=O)C(=O)O [C-peptide, Recombinant human C-peptide]?
Answer: Expected physiological mean plasma concentration [1]: ~1 nmoL/L; AEs of severe intensity (S): Sepsis ([2]; High-dose, ITT data set, Infections and infestations): S (1); AEs of any severity: Tooth ache ([2]; High-dose, PP data set): 3; AEs of any severity: Urinary tract infection ([2]; High-dose, PP data set, Infections and infestations): 1; AEs of any severity: Skin infection ([2]; High-dose, PP data set, Skin and subcutaneous tissue disorders): 2; AEs of moderate intensity (M): Acute HIV infection [2, 7]: M (1); AEs of moderate intensity (M): Borrelia infection [2, 7]: M (1); AEs of moderate intensity (M): Herpes zoster [2, 7]: M (1); AEs of moderate intensity (M): Skin infection ([2]; Low-dose, ITT data set, Skin and subcutaneous tissue disorders): M (1); AEs of any severity: Tooth ache ([2]; Low-dose, PP data set): 2; AEs of any severity: Acute HIV infection [2, 8]: 1; AEs of any severity: Borrelia infection [2, 8]: 1; AEs of any severity: Herpes simplex [2, 8]: 1; AEs of any severity: Herpeszoster [2, 8]: 1; AEs of any severity: Influenza [2, 8]: 1; AEs of any severity: Nasopharyngitis [2, 8]: 31; AEs of any severity: Otitis [2, 8]: 1; AEs of any severity: Pharyngitis [2, 8]: 1; AEs of any severity: Sinusitis [2, 8]: 4; AEs of any severity: Skin infection [2, 8]: 5; AEs of any severity: Tonsilitis [2, 8]: 1; AEs of any severity: Upper respiratory tract infection [2, 8]: 3; AEs of any severity: Urinary tract infection [2, 8]: 3; AEs of any severity: Joint sprain ankle [2, 9]: 1; AEs of any severity: Rib fracture/injury [2, 9]: 1; AEs of any severity: Skin injury [2, 9]: 2; AEs of any severity: Elevated serum creatinine [2, 10]: 1; AEs of any severity: Hepatic enzyme increase [2, 10]: 2; AEs of any severity: Hyperkalaemia [2, 10]: 1; AEs of any severity: Weight increased [2, 10]: 1; Deaths ([2]; during the study): No deaths; Antibody reactivity to C-peptide (C-peptide antibodies): no or very weak reactivity; Changes in clinical laboratory variables [3]: no significant changes in any of the variables; Increase in pre-dosing morning C-peptide plasma level vs baseline ([4]; High-dose C-peptide, n=4): 0.13 ± 0.083 nmol/L; Increase in pre-dosing morning C-peptide plasma level vs baseline ([4]; Low-dose C-peptide, n=8): 0.045 ± 0.092 nmol/L; Accumulation following repeated C-peptide dosing ([4]; dose ranges of the study, 4.5 months): likely no significant accumulation; level at time molar ([4]; human, plasma, sc, during treatment, maximum in the high dose group, read-out: Plasma levels of C-peptide attained): 0.2 to 6 nM; BPd (diastolic blood pressure), change from baseline to 6 months treatment (visit 4), Mean ± SD ([5]; High-dose C-peptide, n = 39): −2.6 ± 8.0 mm Hg; BPd (diastolic blood pressure), change from baseline to 6 months treatment (visit 4), Median ([5]; High-dose C-peptide, n = 39): −1.0 mm Hg; BPs (systolic blood pressure), change from baseline to 6 months treatment (visit 4), Mean ± SD ([5]; High-dose C-peptide, n = 39): −8.8 ± 10.0 mm Hg; BPs (systolic blood pressure), change from baseline to 6 months treatment (visit 4), Median ([5]; High-dose C-peptide, n = 39): −8.0 mm Hg; Heart rate, change from baseline to 6 months treatment (visit 4), Mean ± SD ([5]; High-dose C-peptide, n = 39): −3.2 ± 10.0 bpm; Heart rate, change from baseline to 6 months treatment (visit 4), Median ([5]; High-dose C-peptide, n = 39): −4.0 bpm; QTc-interval Bazett, change from baseline to 6 months treatment (visit 4), Mean ± SD ([5]; High-dose C-peptide, n = 39): -4.5 ± 20.3 ms; QTc-interval Bazett, change from baseline to 6 months treatment (visit 4), Median ([5]; High-dose C-peptide, n = 39): 0.0 ms; QTc-interval Fredericia, change from baseline to 6 months treatment (visit 4), Mean ± SD ([5]; High-dose C-peptide, n = 39): -0.5 ± 16.2 ms; QTc-interval Fredericia, change from baseline to 6 months treatment (visit 4), Median ([5]; High-dose C-peptide, n = 39): 0.0 ms; Decrease in systolic blood pressure compared to the low-dose C-peptide group ([5]; High-dose C-peptide, p<0.004, not different from placebo): significantly greater decrease; BPd (diastolic blood pressure), change from baseline to 6 months treatment (visit 4), Mean ± SD ([5]; Low-dose C-peptide, n = 53): −2.7 ± 8.2 mm Hg; BPd (diastolic blood pressure), change from baseline to 6 months treatment (visit 4), Median ([5]; Low-dose C-peptide, n = 53): −1.0 mm Hg; BPs (systolic blood pressure), change from baseline to 6 months treatment (visit 4), Mean ± SD ([5]; Low-dose C-peptide, n = 53): −2.1 ± 12.8 mm Hg; BPs (systolic blood pressure), change from baseline to 6 months treatment (visit 4), Median ([5]; Low-dose C-peptide, n = 53): −1.0 mm Hg; Heart rate, change from baseline to 6 months treatment (visit 4), Mean ± SD ([5]; Low-dose C-peptide, n = 53): −0.9 ± 8.2 bpm; Heart rate, change from baseline to 6 months treatment (visit 4), Median ([5]; Low-dose C-peptide, n = 53): −2.0 bpm; QTc-interval Bazett, change from baseline to 6 months treatment (visit 4), Mean ± SD ([5]; Low-dose C-peptide, n = 53): -0.1 ± 17.5 ms; QTc-interval Bazett, change from baseline to 6 months treatment (visit 4), Median ([5]; Low-dose C-peptide, n = 53): 0.0 ms; QTc-interval Fredericia, change from baseline to 6 months treatment (visit 4), Mean ± SD ([5]; Low-dose C-peptide, n = 53): 0.9 ± 14.1 ms; QTc-interval Fredericia, change from baseline to 6 months treatment (visit 4), Median ([5]; Low-dose C-peptide, n = 53): 1.3 ms; Changes in heart rate, blood pressure, and QTc ([5]; any of the three treatment groups, 6 months): nor were there any significant changes; Abnormalities in ECG ([5]; during study medication treatment): no clinically significant abnormalities; Bioavailability [6]: approximately 80%
